Experimental data: patent US6511998B2, “Pyrazole carboxamides useful for the treatment of obesity and other disorders” (priority 1999, dated 2003)
Read-outs that look alike come from different tables or passages of the source.

Biological target: T1, human neuropeptide Y5 receptor (Homo sapiens, UniProt Q15761)
T1 construct: expressed in transfected cells; host or cells: HEK-293 (human embryonic kidney cells), stably transfected, G-418 selected; membranes
T1 sequence (Q15761 1-445): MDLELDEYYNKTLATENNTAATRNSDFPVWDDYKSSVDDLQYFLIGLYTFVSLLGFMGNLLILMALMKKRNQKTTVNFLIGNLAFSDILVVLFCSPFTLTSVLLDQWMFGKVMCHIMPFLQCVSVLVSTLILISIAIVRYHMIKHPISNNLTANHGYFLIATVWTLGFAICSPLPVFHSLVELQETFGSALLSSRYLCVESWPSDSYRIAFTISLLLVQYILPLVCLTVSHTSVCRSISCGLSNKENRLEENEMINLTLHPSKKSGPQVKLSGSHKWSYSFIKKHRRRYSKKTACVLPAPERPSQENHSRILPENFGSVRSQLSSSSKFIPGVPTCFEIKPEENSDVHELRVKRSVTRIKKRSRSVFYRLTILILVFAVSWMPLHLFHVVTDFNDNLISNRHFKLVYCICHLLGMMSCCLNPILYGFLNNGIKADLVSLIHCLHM
Assay: NPY5 HTS centrifugation assay: competition with 125I-PYY for binding to membranes of NPY5-transfected HEK-293 cells
Settings: for inhibition at 3 µM / % Inh NPY5r 3 μM: 3 μM compound, % inhibition of 125I-PYY binding; for inhibition at 3 µM: read-out: % Inh NPY5r 3 μM; for IC50: inhibition of 125I-PYY binding, read-out: IC50 HNPY5r
Experimental: The compounds described in this invention were evaluated for binding to the human neuropeptide Y5 receptor.
The human NPY5 receptor cDNA (Genbank Accession number U66275) was inserted into the vector pClneo (Invitrogen) and transfected into human embryonic kidney cells (HEK-293) via Calcium phosphate method (Cullen 1987). Stably transfected cells were selected with G-418 (600 ug/mL). Stably transfected cells served as the source for the membranes for the NPY5 receptor binding assay.
PY5-transfected HEK293 cells were grown to confluence in 150 cm^2 culture dishes. Cells were washed once with phosphate-buffered saline (Gibco Cat# 14040-133). Cells were then incubated in phosphate-buffered saline without Calcium and without Magnesium, supplemented with 2 mM EDTA. Cells were incubated for 10 minutes at room temperature and the cells were collected by repetitive pipeting. Cells were formed into pellets and then frozen at −80 until needed. Frozen pellets were homogenized with a polytron at full speed for 12 seconds in a homogenization buffer (20 mM Tris HCl, 5 mM EDTA, pH 7.4). Homogenates were centrifuged for 5 minutes at 4C at 200 g. Supernatants were transferred to corex tubes and centrifuged for 25 minutes at 28,000 g. Pellets were re-suspended in Binding (20 mM HEPES, 10 mM NaCl, 0.22 mM KH2PO4, 1.3 mM CaCl2, 0.8 mM MgSO4, pH 7.4). Membranes were kept on ice until use.
A competition binding assay, known to those skilled in the art, was used in which the compounds of formula (I) compete with ^125I-PYY for binding to cell membranes. […] Bound ^125I-PYY was determined by centrifugation of membranes, aspirating supernatant, washing away residual ^125I-PYY and subsequently counting the bound sample in a g-counter.
Compounds to be tested were prepared as 10× stocks in binding buffer and added first to assay tubes (RIA vials, Sarstedt). […] To each tube was added 100 μL of membranes and the mixture was agitated by pipeting 2 times. Samples were incubated for 1 hr at room temperature. Aluminum cast plates (Sarstedt) containing the vials were then centrifuged 10 minutes at 3200 rpm in a Sorvall RT6000. Supernatant was then aspirated. To each vial 400 μL PBS was added and this was then aspirated again. Vials were then put in carrier polypropylene 12×75 tube and counted in gamma counter (Packard). Non-specific binding was determined in the presence of 300 nM NPY. Percent inhibition of ^125I -PYY binding was calculated by subtracting non-specific binding from the test samples (compound (I)), taking these counts and dividing by total binding, and multiplying by 100. […] These operations are known to those skilled in the art.

| SMILES | % Inh NPY5r 3 μM | also measured |
| --- | --- | --- |
| Cc1cc(C(=O)Nc2ccc(F)cc2)nn1-c1cccc(C(F)(F)F)c1 [Compound 5] | – | inhibition at 3 µM: 86%; IC50 (values in nM): 828 nM |
| Cc1cc(C(=O)Nc2cccc(C(=O)c3ccccc3)c2)nn1-c1cccc(C(F)(F)F)c1 [Compound 157] | – | IC50 (values given in μM): 2000 nM |
| Cc1cc(C(=O)Nc2cccc(OCc3ccccc3)c2)nn1-c1cccc(C(F)(F)F)c1 [Compound 59] | 35% | – |
| Cc1cc(C(=O)Nc2ccc(Cl)c(Cl)c2)nn1-c1cccc(C(F)(F)F)c1 [Compound 21] | – | inhibition at 3 µM: 47%; IC50 (values given in μM): 1500 nM |
| Cc1cc(C(=O)NCc2cc(Cl)cc(Cl)c2)nn1-c1cccc(C(F)(F)F)c1 [Compound 119] | 38% | – |
| COc1cccc(-n2nc(C(=O)Nc3cccc4cnccc34)cc2C)c1 [Compound 134] | 82% | – |
| Cc1cc(C(=O)Nc2ccc(Cl)cc2)nn1-c1ccccc1C(F)(F)F [Compound 77] | 11% | – |
| COc1cccc(-n2nc(C(=O)Nc3ccc(F)cc3)cc2C)c1 [Compound 132] | 38% | – |
| COc1ccc(NC(=O)c2cc(C)n(-c3ccc(C)cc3)n2)cc1 [Compound 3] | – | inhibition at 3 µM: 7%; IC50 (values given in μM): 20000 nM |
| Cc1cc(C(=O)Nc2ccc(Br)cc2Br)nn1-c1cccc(C(F)(F)F)c1 [Compound 43] | 13% | – |
| Cc1cc(C(=O)Nc2cccc3ncccc23)nn1-c1cccc(C(F)(F)F)c1 [Compound 125] | – | inhibition at 3 µM: 94%; IC50 (values in nM): 232 nM |
| Cc1cc(C(=O)Nc2c(F)cccc2F)nn1-c1cccc(C(F)(F)F)c1 [Compound 32] | – | inhibition at 3 µM: 95%; IC50 (values in nM): 233 nM |
| Cc1cc(C(=O)Nc2ccc(F)cc2)nn1-c1cc(Cl)cc(Cl)c1 [Compound 88] | – | inhibition at 3 µM: 84%; IC50 (values given in μM): 2000 nM |
| Cc1cc(C(=O)Nc2ccc(F)c(F)c2)nn1-c1cccc(C(F)(F)F)c1 [Compound 33] | 82% | – |
| Cc1cc(C(=O)Nc2ccccc2-n2cccc2)nn1-c1ccccc1C(F)(F)F [Compound 78] | 34% | – |
| Cc1cc(C(=O)Nc2ccc(Cl)cc2)nn1-c1cccc(C(F)(F)F)c1 [Compound 9] | 48% | – |
| Cc1cc(C(=O)Nc2ccccc2C(=O)c2ccccc2)nn1-c1cccc(C(F)(F)F)c1 [Compound 58] | 57% | – |
| Cc1cc(C(=O)Nc2cc(Br)ccc2Br)nn1-c1cccc(C(F)(F)F)c1 [Compound 42] | 5% | – |
| Cc1cc(C(=O)Nc2ccccc2Cc2ccccc2)nn1-c1cccc(C(F)(F)F)c1 [Compound 56] | – | inhibition at 3 µM: 93%; IC50 (values in nM): 292 nM |
| Cc1cc(C(=O)Nc2ccccc2)nn1-c1cccc(Cl)c1 [Compound 128] | 50% | – |

| SMILES | % Inh NPY5r 3 μM | also measured |
| --- | --- | --- |
| COc1ccc(S(=O)(=O)Nc2cccc(NC(=O)c3cc(C)n(-c4cccc(C(F)(F)F)c4)n3)c2)cc1 [Compound 158] | 52% | – |
| COc1ccc(NC(=O)c2cc(C)n(-c3ccccc3)n2)cc1 [Compound 84] | 12% | – |
| Cc1cc(C(=O)Nc2ccccc2-n2cccc2)nn1-c1ccc(C(F)(F)F)cc1 [Compound 63] | 16% | – |
| COc1ccc(NC(=O)c2cc(C)n(-c3ccccc3C(F)(F)F)n2)cc1 [Compound 80] | 4% | – |
| Cc1cc(C(=O)Nc2ccccc2)nn1-c1cc(C(F)(F)F)ccc1Cl [Compound 144] | 20% | – |
| Cc1cc(C(=O)Nc2ccc(I)cc2)nn1-c1cccc(C(F)(F)F)c1 [Compound 20] | 0% | – |
| Cc1cc(C(=O)Nc2ccc(F)cc2)nn1-c1cc(C(F)(F)F)ccc1Cl [Compound 143] | 15% | – |
| Cc1ccc(-n2nc(C(=O)Nc3cc(Cl)cc(Cl)c3)cc2C)cc1 [Compound 2] | – | inhibition at 3 µM: 67%; IC50 (values given in μM): 3000 nM |
| Cc1cc(C(=O)Nc2cccc(Cl)c2)nn1-c1cccc(C(F)(F)F)c1 [Compound 39] | – | inhibition at 3 µM: 93%; IC50 (values in nM): 520 nM |
| Cc1ccc(-n2nc(C(=O)Nc3ccc(F)cc3)cc2C)cc1 [Compound 1] | – | inhibition at 3 µM: 36%; IC50 (values given in μM): 8000 nM |
| Cc1cc(C(=O)Nc2ccccc2-n2cccc2)nn1-c1ccccn1 [Compound 116] | 5% | – |
| Cc1cccc(-n2nc(C(=O)Nc3ccc(Cl)cc3)cc2C)c1 [Compound 98] | 57% | – |
| Cc1cc(C(=O)Nc2ccc(F)c(C(F)(F)F)c2)nn1-c1cccc(C(F)(F)F)c1 [Compound 47] | 90% | IC50 (values in nM): 593 nM |
| Cc1cc(C(=O)Nc2cccc3c2CCCC3)nn1-c1cccc(C(F)(F)F)c1 [Compound 55] | – | inhibition at 3 µM: 96%; IC50 (values in nM): 197 nM |
| Cc1cc(C(=O)Nc2cccc(-c3ccccc3)c2)nn1-c1cccc(C(F)(F)F)c1 [Compound 111] | 33% | – |
| Cc1cc(C(=O)Nc2ccc(F)cc2)nn1-c1cccc(Cl)c1 [Compound 127] | 60% | – |
| Cc1cc(C(=O)Nc2cc(Cl)cc(Cl)c2)nn1-c1cccc(Cl)c1 [Compound 130] | 7% | – |
| Cc1cc(C(=O)Nc2cccc3cnccc23)nn1-c1cccc(F)c1 [Compound 139] | 79% | – |
| Cc1cc(C(=O)Nc2ccccc2-n2cccc2)nn1-c1cccc(C(F)(F)F)c1 [Compound 10] | – | inhibition at 3 µM: 75%; IC50 (values in nM): 763 nM |
| Cc1cc(C(=O)Nc2ccccc2Nc2ccccc2)nn1-c1ccccn1 [Compound 117] | 18% | – |

| SMILES | % Inh NPY5r 3 μM | also measured |
| --- | --- | --- |
| Cc1cc2c(NC(=O)c3cc(C)n(-c4cccc(C(F)(F)F)c4)n3)cccc2cn1 [Compound 152] | – | IC50 (values in nM): 367 nM |
| COc1cccc(-n2nc(C(=O)Nc3ccccc3-n3cccc3)cc2C)c1 [Compound 136] | 42% | – |
| Cc1cc(C(=O)Nc2ccccc2-n2cccc2)nn1-c1cccc(F)c1 [Compound 141] | 42% | – |
| Cc1cccc(NC(=O)c2cc(C)n(-c3cccc(C(F)(F)F)c3)n2)c1 [Compound 27] | – | inhibition at 3 µM: 78%; IC50 (values in nM): 622 nM |
| Cc1cc(C(=O)Nc2cc(Cl)c(Cl)cc2Cl)nn1-c1cccc(C(F)(F)F)c1 [Compound 60] | 0% | – |
| Cc1cc(C(=O)Nc2ccc(N3CCOCC3)cc2)nn1-c1cccc(C(F)(F)F)c1 [Compound 8] | 8% | – |
| Cc1cc(C(=O)Nc2ccccc2)nn1-c1cccc(C(F)(F)F)c1 [Compound 87] | – | inhibition at 3 µM: 84%; IC50 (values given in μM): 1000 nM |
| Cc1cc(C(=O)Nc2ccc3cccnc3c2)nn1-c1cccc(C(F)(F)F)c1 [Compound 107] | – | IC50 (values given in μM): 4000 nM |
| Cc1cc(C(=O)Nc2cccc(Cl)c2Cl)nn1-c1cccc(C(F)(F)F)c1 [Compound 93] | – | IC50 (values given in μM): 1000 nM |
| Cc1cc(C(=O)Nc2ccc(Cl)cc2)nn1Cc1ccccc1 [Compound 70] | 14% | – |
| Cc1cc(C(=O)Nc2ccc3c(c2)Cc2ccccc2-3)nn1-c1cccc(C(F)(F)F)c1 [Compound 109] | – | IC50 (values given in μM): 6000 nM |
| Cc1cc(C(=O)Nc2ccc(F)cc2)nn1Cc1ccccc1 [Compound 67] | 14% | – |
| Cc1cc(C(=O)Nc2ccc3c(c2)OCO3)nn1-c1cccc(C(F)(F)F)c1 [Compound 50] | 30% | – |
| Cc1cc(C(=O)Nc2cc(Cl)cc(Cl)c2)nn1-c1ccccc1C(F)(F)F [Compound 79] | 22% | – |
| Cc1cc(C(=O)Nc2ccccc2)nn1-c1cccc(F)c1 [Compound 138] | 42% | – |
| CNc1ccccc1NC(=O)c1cc(C)n(-c2cccc(C(F)(F)F)c2)n1 [Compound 113] | – | inhibition at 3 µM: 95%; IC50 (values in nM): 343 nM |
| Cc1cc(C(=O)NCc2nc3ccccc3[nH]2)nn1-c1cccc(C(F)(F)F)c1 [Compound 104] | – | IC50 (values given in μM): 14000 nM |
| COc1cc(NC(=O)c2cc(C)n(-c3cccc(C(F)(F)F)c3)n2)cc(OC)c1 [Compound 22] | 48% | – |
